Key:
[1] = test system: CT26 mouse colon carcinoma; test: Treatment of established subcutaneous CT26 tumors in BALB/cJ mice (syngeneic CT26 mouse colon carcinoma model); assay type: in vivo; settings: CFI-402257 6 mg/kg PO QD 21 days, anti-PD-1 antibody 150 μg IP Days 0, 3, 6, 10
Experimental: (§1) BALB/cJ mice were inoculated subcutaneously with 1×10^6 CT26 cells. The mice were then randomized. Animal weights were monitored daily, and tumor volume was measured three times per week.
[…] was defined as 100×[1−TVf, treated−TVi, treated)/(TVf, control−TVi, control)], where TVf is the average tumor volume at the end of study and TVi is the average tumor volume at the end initiation of treatment. In cases in which tumor regression occurred, percentage of tumor regression was defined as 100×[1−(TVf, treated/TVi, treated)]. At the completion of each study, the mice were killed by an anesthetic overdose, and tumor tissue was removed for further analysis.
Treatments were initiated when tumor volumes reached an average size of ˜60 mm^3. To treat an established tumor, the animals were first assigned into groups, i.e., the control group receiving rat IgG2a […], the group receiving the compound CFI-402257 monotherapy, the group receiving the rat IgG2a anti-PD-1 antibody monotherapy and the group receiving the combination therapy. The compound CFI-402257 and the vehicle [10% (v/v) NMP/40% (v/v) PEG-300/50% (v/v) water for the hydrochloride form; or 80-90% (v/v) PEG-300 or PEG-400 20-10% (v/v) water for the bisphosphate hemihydrate form] were administered by oral gavage (PO), at 6 mg/kg daily (QD) for 21 days. […]

[2] = Animal body weight monitoring / tolerability in CT26 tumor-bearing BALB/cJ mice; assay type: in vivo, mouse
Experimental: as §1
Treatments were initiated when tumor volumes reached an average size of ˜60 mm^3. To treat an established tumor, the animals were first assigned into groups, i.e., the control group receiving rat IgG2a […], the group receiving the compound CFI-402257 monotherapy, the group receiving the rat IgG2a anti-PD-1 antibody monotherapy and the group receiving the combination therapy. The compound CFI-402257 and the vehicle [10% (v/v) NMP/40% (v/v) PEG-300/50% (v/v) water for the hydrochloride form; or 80-90% (v/v) PEG-300 or PEG-400 20-10% (v/v) water for the bisphosphate hemihydrate form] were administered by oral gavage (PO), at 6 mg/kg daily (QD) for 21 days. The anti-PD-1 antibody or the isotype control were administered by intraperitoneal (IP) injection. 150 μg anti-PD-1 antibody was administered in four doses, i.e., on Days 0, 3, 6 and 10. These treatment studies were carried out in duplicates.

Cc1cc(-c2cnn3c(NC[C@H]4C[C@@](C)(O)C4)cc(Oc4cccnc4)nc23)ccc1C(=O)NC1CC1 [CFI-402257]
complete tumor regression ([1]; first and duplicate experiment together (FIGS. 1 and 2)): no instances in which complete regression was observed | effect on tumor growth (tumor volume) ([1]; single agent arms, first and duplicate experiment (FIGS. 1B, 1C, 2B, 2C)): tumor growth delay | tolerability of the administered dosage ([2]; CFI-402257 6 mg/kg PO QD 21 days, anti-PD-1 antibody 150 μg IP Days 0, 3, 6, 10): well-tolerated | animals recording significant body weight loss ([2]; first experiment): none | body weight loss ([2]; second experiment): < 7.5%
